Measurements taken from the kinase profiling compilation of Christmann-Franck et al. (2016).
Values joined by “and” are separate entries in the source; they are usually repeats but may differ in a detail not shown here. Identical values can stand only once.

Columns and labels:
Assay in all cases: radiometric filter-binding kinase assay, Kinase HotSpot
Details in all cases: compound 0.5 µM; ATP 10 µM
[1] = biological target: CAMK4 (human) (UniProt Q16566)
[2] = biological target: DYRK3 (human) (UniProt O43781)
Sequence of DYRK3 (human) (O43781 whole entry, looked up): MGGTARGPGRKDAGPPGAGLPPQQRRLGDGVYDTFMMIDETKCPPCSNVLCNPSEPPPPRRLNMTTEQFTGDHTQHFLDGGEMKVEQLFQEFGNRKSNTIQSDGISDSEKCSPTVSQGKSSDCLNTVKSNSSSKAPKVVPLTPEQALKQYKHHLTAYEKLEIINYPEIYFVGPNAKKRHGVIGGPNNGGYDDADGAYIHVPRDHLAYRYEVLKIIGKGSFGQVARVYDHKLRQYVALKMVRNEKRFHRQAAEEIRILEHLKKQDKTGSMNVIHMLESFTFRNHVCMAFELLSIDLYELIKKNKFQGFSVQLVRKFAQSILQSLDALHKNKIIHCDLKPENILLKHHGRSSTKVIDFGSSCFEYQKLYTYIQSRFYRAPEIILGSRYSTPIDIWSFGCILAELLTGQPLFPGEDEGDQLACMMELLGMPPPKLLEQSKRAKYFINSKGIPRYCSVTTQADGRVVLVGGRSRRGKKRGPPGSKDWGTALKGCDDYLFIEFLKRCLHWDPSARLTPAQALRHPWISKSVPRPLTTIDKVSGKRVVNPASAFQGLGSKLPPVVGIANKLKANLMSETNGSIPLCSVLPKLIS

[3] = biological target: IRAK1 (human) (UniProt P51617)
Sequence of IRAK1 (human) (P51617 whole entry, looked up): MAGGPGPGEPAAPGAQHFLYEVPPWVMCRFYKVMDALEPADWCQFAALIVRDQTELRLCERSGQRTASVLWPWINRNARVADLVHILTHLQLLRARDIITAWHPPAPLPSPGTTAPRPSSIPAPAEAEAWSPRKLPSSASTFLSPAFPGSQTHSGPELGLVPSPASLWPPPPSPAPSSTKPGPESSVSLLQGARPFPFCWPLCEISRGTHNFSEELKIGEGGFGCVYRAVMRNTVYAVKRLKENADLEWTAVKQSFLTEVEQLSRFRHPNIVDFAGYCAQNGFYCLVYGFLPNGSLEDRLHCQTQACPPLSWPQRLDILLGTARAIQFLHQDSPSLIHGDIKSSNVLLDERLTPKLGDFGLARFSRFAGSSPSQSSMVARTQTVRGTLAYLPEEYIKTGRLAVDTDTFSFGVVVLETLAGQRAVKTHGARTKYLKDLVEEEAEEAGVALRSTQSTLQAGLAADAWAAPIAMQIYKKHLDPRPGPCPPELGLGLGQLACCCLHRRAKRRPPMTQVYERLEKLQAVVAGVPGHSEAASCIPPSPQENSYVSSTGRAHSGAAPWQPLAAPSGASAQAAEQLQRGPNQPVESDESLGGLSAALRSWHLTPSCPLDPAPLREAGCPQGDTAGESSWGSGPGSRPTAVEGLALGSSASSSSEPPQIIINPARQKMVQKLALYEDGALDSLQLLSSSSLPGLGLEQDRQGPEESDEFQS

[4] = biological target: RPS6KA2 KD1 KD2 (human) (UniProt Q15349)
[5] = biological target: ULK1 (human) (UniProt O75385)
[6] = biological target: CDK3 CCNE1 (human) (UniProt Q00526+P24864)
[7] = biological target: SRMS (human) (UniProt Q9H3Y6)
[8] = biological target: EPHA7 (human) (UniProt Q15375)
[9] = biological target: CHEK2 (human) (UniProt O96017)
[10] = biological target: EPHA8 (human) (UniProt P29322)
[11] = biological target: LYN (human) (UniProt P07948)
Sequence of LYN (human) (P07948 whole entry, looked up): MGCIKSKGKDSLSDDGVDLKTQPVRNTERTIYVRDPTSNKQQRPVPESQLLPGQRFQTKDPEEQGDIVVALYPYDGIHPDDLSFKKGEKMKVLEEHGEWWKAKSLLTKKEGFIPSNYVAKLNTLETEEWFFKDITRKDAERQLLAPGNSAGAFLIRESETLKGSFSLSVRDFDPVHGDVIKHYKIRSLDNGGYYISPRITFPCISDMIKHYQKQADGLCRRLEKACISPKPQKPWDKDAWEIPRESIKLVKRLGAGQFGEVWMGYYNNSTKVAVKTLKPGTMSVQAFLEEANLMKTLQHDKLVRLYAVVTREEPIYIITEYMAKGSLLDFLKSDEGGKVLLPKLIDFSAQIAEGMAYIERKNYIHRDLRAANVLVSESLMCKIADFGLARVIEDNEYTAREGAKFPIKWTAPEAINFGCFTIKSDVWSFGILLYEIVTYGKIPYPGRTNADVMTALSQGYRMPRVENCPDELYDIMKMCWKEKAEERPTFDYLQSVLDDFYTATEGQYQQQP

[12] = biological target: STK3 (human) (UniProt Q13188)
Sequence of STK3 (human) (Q13188 whole entry, looked up): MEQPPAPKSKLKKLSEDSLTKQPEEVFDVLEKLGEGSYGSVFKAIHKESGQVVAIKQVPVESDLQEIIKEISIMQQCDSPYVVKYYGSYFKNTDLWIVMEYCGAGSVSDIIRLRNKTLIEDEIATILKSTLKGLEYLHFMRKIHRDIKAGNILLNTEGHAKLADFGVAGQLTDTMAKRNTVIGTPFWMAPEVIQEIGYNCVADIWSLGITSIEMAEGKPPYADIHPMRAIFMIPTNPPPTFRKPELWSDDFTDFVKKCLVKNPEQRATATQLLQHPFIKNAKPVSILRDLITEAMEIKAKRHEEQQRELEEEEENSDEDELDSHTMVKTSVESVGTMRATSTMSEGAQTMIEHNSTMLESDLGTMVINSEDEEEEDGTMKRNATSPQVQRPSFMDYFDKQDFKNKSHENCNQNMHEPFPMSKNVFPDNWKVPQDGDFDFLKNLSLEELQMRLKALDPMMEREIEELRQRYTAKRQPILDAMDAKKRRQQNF

[13] = biological target: PBK (human) (UniProt Q96KB5)
Sequence of PBK (human) (Q96KB5 whole entry, looked up): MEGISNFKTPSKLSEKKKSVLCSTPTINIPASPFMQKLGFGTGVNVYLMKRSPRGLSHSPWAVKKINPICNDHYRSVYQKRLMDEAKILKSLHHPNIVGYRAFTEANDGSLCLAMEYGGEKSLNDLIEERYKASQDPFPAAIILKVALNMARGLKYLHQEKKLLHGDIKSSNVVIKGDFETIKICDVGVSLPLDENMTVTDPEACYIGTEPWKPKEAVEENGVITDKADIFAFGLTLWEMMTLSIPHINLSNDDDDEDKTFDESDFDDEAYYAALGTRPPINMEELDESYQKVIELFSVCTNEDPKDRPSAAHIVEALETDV

[14] = biological target: CSF1R (human) (UniProt P07333)
[15] = biological target: TAOK1 (human) (UniProt Q7L7X3)
[16] = test system: MAP2K6 (human), P52564 [S207E/T211E]
Sequence of MAP2K6 (human), P52564 [S207E/T211E] (P52564 whole entry S207E/T211E, looked up): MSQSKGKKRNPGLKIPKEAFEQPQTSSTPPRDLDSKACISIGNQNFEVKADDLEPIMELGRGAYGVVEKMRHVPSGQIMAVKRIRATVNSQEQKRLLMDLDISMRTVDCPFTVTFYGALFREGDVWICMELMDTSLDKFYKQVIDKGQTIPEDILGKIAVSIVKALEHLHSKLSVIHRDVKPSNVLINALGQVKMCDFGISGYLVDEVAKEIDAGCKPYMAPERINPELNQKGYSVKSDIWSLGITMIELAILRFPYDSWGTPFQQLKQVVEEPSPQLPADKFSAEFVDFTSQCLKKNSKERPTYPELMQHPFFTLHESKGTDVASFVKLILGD

[17] = biological target: TEK (human) (UniProt Q02763)
[18] = biological target: CSNK1G2 (human) (UniProt P78368)
[19] = biological target: PLK2 (human) (UniProt Q9NYY3)
Sequence of PLK2 (human) (Q9NYY3 whole entry, looked up): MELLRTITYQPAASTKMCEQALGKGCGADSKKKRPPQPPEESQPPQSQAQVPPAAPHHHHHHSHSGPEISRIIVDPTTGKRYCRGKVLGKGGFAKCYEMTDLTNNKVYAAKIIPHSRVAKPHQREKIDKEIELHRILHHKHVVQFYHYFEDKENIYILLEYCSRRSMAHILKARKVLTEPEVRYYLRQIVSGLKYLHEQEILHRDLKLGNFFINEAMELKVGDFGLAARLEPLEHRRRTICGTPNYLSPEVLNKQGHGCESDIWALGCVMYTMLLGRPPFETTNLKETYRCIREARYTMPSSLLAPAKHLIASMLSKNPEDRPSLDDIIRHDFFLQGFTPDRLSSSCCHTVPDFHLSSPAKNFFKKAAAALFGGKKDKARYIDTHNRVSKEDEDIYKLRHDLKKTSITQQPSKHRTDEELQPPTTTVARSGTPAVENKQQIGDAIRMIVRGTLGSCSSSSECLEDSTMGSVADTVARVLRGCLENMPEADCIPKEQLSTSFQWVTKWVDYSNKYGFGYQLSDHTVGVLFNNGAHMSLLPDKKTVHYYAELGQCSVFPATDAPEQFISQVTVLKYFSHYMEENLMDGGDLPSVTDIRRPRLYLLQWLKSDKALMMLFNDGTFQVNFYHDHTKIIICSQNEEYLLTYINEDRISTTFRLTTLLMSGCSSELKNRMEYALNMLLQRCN

[20] = biological target: CLK4 (human) (UniProt Q9HAZ1)
[21] = biological target: TGFBR1 (human) (UniProt P36897)
[22] = biological target: FER (human) (UniProt P16591)
[23] = biological target: EPHB2 (human) (UniProt P29323)
[24] = biological target: ACVRL1 (human) (UniProt P37023)
[25] = biological target: MAP3K5 (human) (UniProt Q99683)
[26] = biological target: NUAK1 (human) (UniProt O60285)
[27] = biological target: STK39 (human) (UniProt Q9UEW8)
[28] = biological target: CDK4 CCND1 (human) (UniProt P24385+P11802)
Sequence of CDK4 CCND1 (human) (P11802 whole entry, looked up): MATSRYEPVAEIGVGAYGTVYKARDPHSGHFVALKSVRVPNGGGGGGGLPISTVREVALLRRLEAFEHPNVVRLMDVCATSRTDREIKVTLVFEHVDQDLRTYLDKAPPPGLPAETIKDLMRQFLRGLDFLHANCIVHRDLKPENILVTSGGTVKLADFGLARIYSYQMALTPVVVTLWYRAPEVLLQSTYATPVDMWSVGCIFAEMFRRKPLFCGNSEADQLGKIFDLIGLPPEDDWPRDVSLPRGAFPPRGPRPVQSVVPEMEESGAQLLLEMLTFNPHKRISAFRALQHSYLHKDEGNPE
Sequence of CDK4 CCND1 (human) (P24385 whole entry, looked up): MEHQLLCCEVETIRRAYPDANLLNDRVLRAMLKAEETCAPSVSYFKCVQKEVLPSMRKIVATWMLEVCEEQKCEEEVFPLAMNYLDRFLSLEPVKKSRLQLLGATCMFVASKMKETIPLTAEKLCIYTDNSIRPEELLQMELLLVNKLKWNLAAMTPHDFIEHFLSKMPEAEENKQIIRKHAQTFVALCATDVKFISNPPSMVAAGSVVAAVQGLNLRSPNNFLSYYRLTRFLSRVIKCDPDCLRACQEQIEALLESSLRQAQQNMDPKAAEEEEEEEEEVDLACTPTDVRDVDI

[29] = biological target: MAPK1 (human) (UniProt P28482)
[30] = biological target: PRKX (human) (UniProt P51817)
[31] = biological target: CDK2 CCNA2 (human) (UniProt P24941+P20248)
[32] = biological target: PAK3 (human) (UniProt O75914)
[33] = biological target: CSNK2A2 (human) (UniProt P19784)
[34] = biological target: PRKG2 (human) (UniProt Q13237)
[35] = biological target: MARK2 (human) (UniProt Q7KZI7)
[36] = biological target: PAK7 (human) (UniProt Q9P286)
[37] = biological target: AKT3 (human) (UniProt Q9Y243)
[38] = biological target: MUSK (human) (UniProt O15146)
[39] = biological target: CDK1 CCNB1 (human) (UniProt P06493+P14635)
[40] = biological target: PHKG2 (human) (UniProt P15735)
[41] = biological target: ROS1 (human) (UniProt P08922)

Sequence of CAMK4 (human) (Q16566 whole entry, looked up): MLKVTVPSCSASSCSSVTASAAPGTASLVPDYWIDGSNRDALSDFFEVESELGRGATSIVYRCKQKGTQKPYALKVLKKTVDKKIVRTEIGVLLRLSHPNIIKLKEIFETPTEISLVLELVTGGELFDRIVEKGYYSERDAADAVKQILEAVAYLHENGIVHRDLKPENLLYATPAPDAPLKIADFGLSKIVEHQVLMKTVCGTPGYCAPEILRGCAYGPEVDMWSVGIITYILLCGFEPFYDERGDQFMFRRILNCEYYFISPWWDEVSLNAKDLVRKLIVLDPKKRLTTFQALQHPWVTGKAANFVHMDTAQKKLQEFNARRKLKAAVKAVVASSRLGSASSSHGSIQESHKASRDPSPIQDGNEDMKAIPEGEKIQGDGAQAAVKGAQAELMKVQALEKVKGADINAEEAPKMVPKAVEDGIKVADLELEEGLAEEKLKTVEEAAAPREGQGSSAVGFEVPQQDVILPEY

Row | SMILES | residual activity [1] [%] | residual activity [2] [%] | residual activity [3] [%] | residual activity [4] [%] | residual activity [5] [%] | residual activity [6] [%] | residual activity [7] [%] | residual activity [8] [%] | residual activity [9] [%] | residual activity [10] [%] | residual activity [11] | residual activity [12] [%] | residual activity [13] [%] | residual activity [14] [%] | residual activity [15] [%] | residual activity [16] [%] | residual activity [17] [%] | residual activity [18] [%] | residual activity [19] [%] | residual activity [20] [%] | further results
1 | NC(=O)c1cccc(-c2cc(Nc3ccc(OC(F)(F)F)cc3)ncn2)c1 | 90.5 | 99.9 | 101 | 96.2 | 97.5 | 98.8 | 93.4 | 99.1 | 101 | 94.5 | 101% and 99.8% | 93.6 | 72.2 | 94.1 | 92.9 | 101 | 94.2 | 89.5 | 98 | 97.8 | residual activity [21]: 103%; residual activity [22]: 105%; residual activity [23]: 102%; residual activity [24]: 99.2%; residual activity [25]: 90.3%; residual activity [26]: 96.7%; residual activity [27]: 85.5%; residual activity [28]: 99.8%; residual activity [29]: 96.6%; residual activity [30]: 105%; residual activity [31]: 96.5%; residual activity [32]: 100%; residual activity [33]: 92.7%; residual activity [34]: 96.4%; residual activity [35]: 90.8%; residual activity [36]: 88.1%; residual activity [37]: 93.5%; residual activity [38]: 95.9%; residual activity [39]: 92.5%; residual activity [40]: 103%
2 | COc1cc(Nc2c(C#N)cnc3cc(OCCCN4CCN(C)CC4)c(OC)cc23)c(Cl)cc1Cl | 90.7 | 91.8 | 91.3 | 44.2 | 79.1 | 91.9 | 90.6 | 77.2 | 21.7 | 10.5 | 2.13% and 6% | 13.9 | 104 | 43.1 | 52.8 | 93.4 | 82.6 | 98.3 | 100 | 76.6 | residual activity [21]: 99%; residual activity [41]: 95.4%; residual activity [22]: 54.6%; residual activity [23]: 17.4%; residual activity [24]: 67.6%; residual activity [25]: 95.7%; residual activity [26]: 11.4%; residual activity [27]: 93.6%; residual activity [28]: 97.1%; residual activity [29]: 93.7%; residual activity [30]: 110%; residual activity [31]: 91.1%; residual activity [33]: 108%; residual activity [34]: 109%; residual activity [35]: 99.9%; residual activity [36]: 83.6%; residual activity [37]: 90.7%; residual activity [38]: 81.7%; residual activity [39]: 95.9%; residual activity [40]: 103%
